Experiment [1] concerns mice subjected to traumatic brain injury (TBI). Kind of experiment: Traumatic brain injury (TBI) in mice, Western blot analysis for GFAP. Type of experiment: in vivo, C57BL/6 mice. The note with it: for efficacy in the mouse TBI model: summary statement, FIG. 12; for GFAP expression in brain (GFAP/actin, Western blot): 7 days post-injury, vs TBI untreated. Here is the method:
Animals and traumatic brain injury (TBI): TBI was performed with a controlled closed skull injury model as described in […] al. 2012 (J. Neurotrauma 30, 55-66). Following the method described therein, a pneumatic impact device was used to generate a moderate TBI leaving the skull and dura matter intact. To achieve this, C57BL/6 mice were anesthetized with isoflurane (3% induction, 1% maintenance) in 100% oxygen. A body temperature of 37° C. was maintained using a temperature-controlled heated surgical table. A small midline incision was made on the scalp using aseptic surgical techniques. A 5 mm stainless steel disc was positioned on the skull and fixed using superglue on the right parietal bone between bregma and lamda over the somatosensory cortex. The mouse was then positioned on a stage directly under the pneumatic impact tip. […] Scalp incisions were closed using 4-0 nylon braided suture and antibiotic ointment applied to the incision. Mice were placed in a Thermo-Intensive Care Unit (Braintree Scientific model FV-1; 37° C.; 27% 02) and monitored until fully awake and moving freely. […] Western Blot Analysis for GFAP: At selected survival times, mice were anesthetized under isoflurane and sacrificed. The brain was removed and placed on ice for dissection into impacted and non-impacted brain hemispheres. […] The homogenate was transferred to a 2 mL tube and centrifuged at 1000 g for 10 minutes at 4° C. and the supernatant was collected and analyzed. Protein concentration was determined by the BCA assay using a 1:50 dilution. 100 μg of protein was removed as an aliquot for each sample and Laemmli buffer containing β-mercaptoethanol added and the sample placed in a heat block for 3 minutes at 95° C. Samples were loaded on a 12% gel and ran at 80 V for 20 minutes followed by 40 minutes at 130 V. Samples were transferred to nitrocellulose membrane at 100 V for 1 hour. The membrane was blocked with 5% milk in TBS-T for 30 minutes. GFAP (1:1000-Imgenex IMG-5083-A) was added and placed at 4° C. overnight. The membrane was washed with TBS-T three times for 10 minutes. Secondary antibody for GFAP (Donkey anti-rabbit HRP conjugated (ImmunoJackson Laboratories; 711-035-152; 1:20000) was applied at room temperature for 1 hour. The membranes were washed with TB S-T for 15 minutes (3 times) and developed using the Western Lightning Plus-ECL kit (PerkinElmer, Inc.) following manufacturer's directions.

The next experiment deals with mice subjected to stroke. Put plainly: Photothrombosis-induced stroke in mice, TTC-stained brain infarction size. The format is in vivo, C57Bl/6 mice. As to conditions: for efficacy in the mouse photothrombotic stroke model: summary statement; for size of brain infarctions in mice pretreated with A3 receptor antagonist MRS1523: MRS1523 2 mg/kg ip at 0 and 2 hour, treatment within 30 minutes of clot formation; for size of brain infarctions in mice pretreated with A3 receptor antagonist MRS1523 / size of the brain infarction (TTC staining): 24 hours; for size of the brain infarction (TTC staining): photothrombotic stroke mice, vs vehicle. Here is the method: Photothrombosis-induced Stroke: Photothrombosis was performed as described in Zheng et al 2010 (PloS One 5 (12): e14401). In brief, Rose Bengal is a fluorescent dye that when injected into the vasculature and excited, generates singlet oxygen that damages the endothelial wall and induces a local thrombosis (clot). Using this technique, mice were given a 0.1 mL tail-vein injection of sterilized Rose Bengal (RB, Sigma, U.S.A.) in artificial cerebral spinal fluid (aCSF). The RB concentration was 20 mg/mL. A cortical region was centered in the imaging field and illuminated with a green laser (543 nm, 5 mW) using a 0.8-NA 40× water-immersion objective (Nikon, Tokyo). The clot formation was monitored in real time until the targeted vessel or downstream capillaries were firmly occluded. Stable clots were subsequently identified by a non-fluorescent vessel segmentation ending with highly fluorescent regions. […] Treatments, MRS4322 (0.16 mg/kg; 0.5 μmol/kg) or MRS2365 (0.24 mg/kg; 0.5 μmol/kg) were introduced via intraperitoneal injections (i.p.). For experiments with A3 receptor antagonist MRS1523, mice were administered intraperitoneal injections (2 mg/kg) at the 0 and 2 hour timepoints to ensure receptor antagonism throughout the course of the study.
Animals and Photothrombosis-induced Stroke: Stroke was performed as described in Zheng et al 2010 (PloS One 5 (12): e14401). Female C57Bl/6 mice (4-6 months) were used in this study. From the methods of this manuscript: Mice were anesthetized at 3% isoflurane with 100% oxygen and subsequently maintained at 1% isoflurane through a nosecone. Depth of anesthesia was monitored and regulated according to vital signs, pinch withdrawal and eye blinks. Body temperature was maintained at 37° C. by a feedback-controlled heating pad (Gaymar T/Pump). Vital signs including oxygen saturation, respiratory rate, and heart rate were continuously monitored by using the MouseOx system (STARR Life Sciences). The hair on each mouse's head was trimmed and a small incision was made in the scalp to expose the skull. A custom-made stainless steel plate was glued to the skull with VetBond Tissue Adhesive (3M, St Paul, MN). A cranial thinned-skull imaging window was created over the right primary somatosensory cortex (˜1.5 mm posterior to Bregma and 2 mm lateral from midline) depending on the experiment. In brief, a large region of the skull was first thinned with the electric drill and then further thinned with a surgical blade. The final thickness of the thinned skull was approximately 50 μm. After the cranial imaging window was created, mice were transferred to microscope stage and used for photothrombosis or imaging experiments. For the repeat imaging experiments, the plate was carefully detached from the skull and the scalp was sutured (Ethicon 6-0 sild suture). After each experiment, the mice were either returned to cages until the next timepoint or sacrificed. All procedures were approved by the Institutional Animal Care and Use Committee (IACUC) at University of Texas Health Science Center at San Antonio. Thirty minutes following stroke or sham (uninjured), mice were treated with either vehicle (saline) or drugs (MRS4322, MRS2365, MRS5698 or Cl-IBMECA).
Post photothrombotic infarction evaluation. The size of cerebral infarcts was evaluated using 2,3,5-Triphenyltetrazolium chloride (TTC) staining as described in Zheng et al 2010 (PloS One 5 (12): e14401). In brief, RB-induced lesions in brain slices were stained with TTC. TTC is a colorless dye that stains healthy brain tissue red when reduced by the mitochondrial enzyme succinyl dehydrogenase (Bederson J B et al., 1986). The absence of staining in necrotic tissue is then used to define the area of a brain infarction. Mice were sacrificed by cervical dislocation, their brains removed and then placed in ice cold HBSS for 3 minutes. The brain was subsequently transferred to a brain mold (KOPF), sliced into 1 mm sections and immersed in 2% TTC (5 min) at 37° C. […]

[2] abbreviates: TBI mice, treated 30 min post-TBI, approximately 0.5 μmol/kg.
The mark [3] stands for this setting: 0.5 μmol/kg ip within 30 minutes of clot formation.

This is an account of results in patent US12239654B2, “Compounds and methods for treating neurological and cardiovascular conditions” (Astrocyte Pharmaceuticals, Inc., priority 2016, dated 2025).

Entries after “also recorded” stand apart in the source; their conditions may differ.

As to `CNC(=O)[C@H]1O[C@@H](n2cnc3c(NCc4cccc(I)c4)nc(Cl)nc32)[C@H](O)[C@@H]1O` [Cl-IB-MECA, 2-Chloro-N^6-(3-iodobenzyl)-adenosine-5′-N-methyluronamide, reference compound], the “efficacy in the mouse TBI model” value in experiment [1] is given as “weakly active”. The “efficacy in the mouse photothrombotic stroke model” value in the experiment with mice subjected to stroke was “inactive”.
For `CSc1nc(N)c2ncn([C@H]3[C@H](O)[C@H](O)[C@]4(COP(=O)(O)OP(=O)(O)O)C[C@H]34)c2n1` [MRS2365], the “GFAP expression in brain (GFAP/actin, Western blot)” value in experiment [1] (setting [2]) is recorded as “significantly lower; also recorded: decreased”. Further, in the experiment on mice subjected to stroke, the “size of brain infarctions in mice pretreated with A3 receptor antagonist MRS1523” value is “not reduced”. In the experiment on mice subjected to stroke (setting [3]), the “size of the brain infarction (TTC staining)” value is recorded as “significantly reduced”.
For `CSc1nc(N)c2ncn([C@H]3[C@H](O)[C@H](O)[C@]4(CO)C[C@H]34)c2n1` [MRS4322], the “GFAP expression in brain (GFAP/actin, Western blot)” value in experiment [1] (setting [2]) is recorded as “significantly lower; also recorded: decreased”. In addition, the “GFAP levels in plasma relative to actin (Western blot)” value in experiment [1] (TBI mice, treated 30 min post-TBI, approximately 0.5 μmol/kg, day 7, vs TBI untreated) is “significantly reduced”. Also, in experiment [1], the “efficacy in the mouse TBI model” value is “significant efficacy”. The “size of brain infarctions in mice pretreated with A3 receptor antagonist MRS1523” value in the experiment with mice subjected to stroke is on record as “not reduced; also recorded: reversed by MRS1523”. For the same molecule, the results for the “size of the brain infarction (TTC staining)” value in the experiment on mice subjected to stroke (setting [3]) and in the experiment on mice subjected to stroke (100 ul of 100 uM ip within 30 minutes of clot formation) were “significantly reduced; also recorded: reduced the effects of stroke infarction” and “significantly reduced”, respectively. Moreover, the “efficacy in the mouse photothrombotic stroke model” value in the experiment on mice subjected to stroke is recorded as “significant efficacy”.
